Entries after “also recorded” stand apart in the source; their conditions may differ. Like-named read-outs stand apart in the source and are kept apart here.
Columns and labels:
LasR [1] = target: T1, LasR (Pseudomonas aeruginosa, UniProt P25084); conditions: P. aeruginosa LasR reporter; ref [30]; cited from earlier work
LasR [2] = target: T1, LasR; conditions: result in words; ref Wu et al., FASEB J. 2016; cited from earlier work
LasR [3] = target: T1, LasR; assay: LasR antagonism, P. aeruginosa PAO-JP2 GFP reporter, in competition with OdDHL; type: cell-based
LasR [4] = target: T1, LasR; assay: LasR agonism, P. aeruginosa PAO-JP2 GFP reporter, compound alone; type: cell-based; conditions: result in words
LasR [5] = target: T1, LasR; assay: E. coli LasR β-galactosidase reporter, wild-type LasR; type: cell-based; conditions: result in words
RhlR = RhlR (Pseudomonas aeruginosa, UniProt P54292); assay: E. coli RhlR β-galactosidase reporter; type: cell-based; conditions: result in words
QscR = QscR (Pseudomonas aeruginosa, UniProt G3XD77); type: cell-based; conditions: E. coli reporter; result in words
LasR [6] = target: T1, LasR; conditions: 50 μM compound; 16 h protein production
LasR Y56F mutant = LasR Y56F mutant (Pseudomonas aeruginosa, UniProt P25084, Y56F); assay: E. coli LasR mutant reporter, Y56F; type: cell-based; conditions: result in words
LasR W60F mutant = LasR W60F mutant (Pseudomonas aeruginosa, UniProt P25084, W60F); assay: E. coli LasR mutant reporter, W60F; type: cell-based; conditions: 100 μM vs OdDHL at its EC50; result in words
LasR S129A mutant = LasR S129A mutant (Pseudomonas aeruginosa, UniProt P25084, S129A); assay: E. coli LasR mutant reporter, S129A; type: cell-based; conditions: result in words
MexAB-OprM efflux pump = conditions: P. aeruginosa; ref [16]; cited from earlier work

In the case of O=C(Cc1ccc(Br)cc1)N[C@H]1CCOC1=O [4-bromo PHL], the IC50 (LasR [1]) is listed as 116 µM.
For CCCCC[C@H](O)/C=C/C=C\C=C\C=C\[C@@H](O)[C@@H](O)CCCC(=O)O [Lipoxin A], the IC50 (LasR [2]) is listed as “nanomolar IC50”.
For CCCCCCCCCNC(=O)CC(=O)c1ccccc1 [V-06–018, N-nonyl-3-oxo-3-phenylpropanamide], the IC50 (LasR [3]) was 3.9 µM, the “LasR antagonism, primary screen” value (LasR [3]; PAO-JP2, compound 10 μM vs 150 nM OdDHL) was ~ 90% and the IC50 (LasR [3]; PAO-JP2, vs 150 nM OdDHL (approximate EC50)) was 2.3 µM. The “Maximum Inhibition” value (LasR [3]; PAO-JP2, vs 150 nM OdDHL, best-fit bottom of dose-response curve) was 89%, the “LasR activation in dose-response agonism curves” value (LasR [4]) was “did not activate LasR” and the “activity in LasR (antagonist in competition, agonist alone)” value (LasR [5]) was “only an antagonist of LasR; also recorded: does not agonize wild-type LasR”. For the same compound, the “activity in RhlR (antagonist or agonist)” value (RhlR) was “no activity (as either an antagonist or agonist)”, the “activity in QscR (antagonist or agonist)” value (QscR) was “only a very weak antagonist; also recorded: only a weak QscR antagonist” and the “soluble (S) LasR band intensity relative to whole cell (WC) band” value (LasR [6]) was ~ 7%. For the same compound, the “LasR Y56F antagonism compared with wild-type LasR” value (LasR Y56F mutant; 100 μM vs OdDHL at its EC50) was “significantly lesser extent than wild-type LasR”, the “LasR Y56F agonism compared with wild-type LasR” value (LasR Y56F mutant; 100 μM) was “significantly greater extent than wild-type LasR” and the “LasR W60F antagonism compared with wild-type LasR” value (LasR W60F mutant) was “significantly lesser extent than wild-type LasR”. For the same compound, the “LasR S129A antagonism compared with wild-type LasR” value (LasR S129A mutant; 100 μM vs OdDHL at its EC50) was “significantly lesser extent than wild-type LasR”, the “LasR S129A agonism compared with wild-type LasR” value (LasR S129A mutant; 100 μM) was “significantly more than wild-type LasR” and the “active efflux by MexAB-OprM” value (MexAB-OprM efflux pump) was “not actively effluxed”.
